Measurements reported in patent publication US7939332B2, “Detection of analytes in aqueous environments” (Sensors for Medicine and Science, Inc., priority 2000, dated 2011).

Experiment: Solubility
Format: physicochemical
Details: for solubility in water: H2O

| Structure (SMILES) | maximum solubility (PBS (pH 7.4)) [µM] | solubility in organic solvents (CH2Cl2, CHCl3, THF, CH3OH, C2H5OH) | solubility in water | solubility in water (listed as anthracene derivative of Examples 1 and 2) | solubility in methanol (methanol, with respect to observing excimer characteristics) |
| --- | --- | --- | --- | --- | --- |
| C=C(C)C(=O)NCCCN(Cc1ccc(CN(CCCNC(=O)C(=C)C)Cc2ccccc2B2OCC(C)(C)CO2)cc1)Cc1ccccc1B1OCC(C)(C)CO1 [bis boronic acid monomer, α,α′-bis[N-[2-(5,5-dimethyl-1,3,2]dioxaborinan-2-yl)-benzyl]-N-[3-(methacrylamido)propylamino]-1,4-xylene] | 1000 |  |  |  |  |
| C=C(C)C(=O)NCCCN(Cc1ccccc1B(O)O)Cc1c2ccccc2cc2ccccc12 [9-[[N-methacryloylaminopropyl-N-(o-boronobenzyl)amino]methyl]anthracene] |  | soluble in CH2Cl2, CHCl3, THF, CH3OH, and C2H5OH | Limited solubility in H2O | insoluble in water | insufficiently soluble |
